Results on 4 molecules are retold here after ChEMBL document CHEMBL1141463, “In vitro anti-inflammatory activity of 3-O-methyl-flavones isolated from Siegesbeckia glabrescens” (Bioorg Med Chem Lett, 2008).

As usually defined, the IC50 is the concentration that inhibits the measured activity by half. High values mean weaker potency in that assay, low ones greater potency in that assay.

Active and inactive are the calls of the source. The rule behind the calls is not given here.

A short description of assay [1]: Peroxynitrite scavenging activity assessed as inhibition of DHR 123 oxidation. Format: functional.
Assay [2] concerns BV-2. Nature of the assay: Inhibition of LPS-induced NO production in mouse BV2 cells. Format: functional, cell-based.
Assay [3] has as its system BV-2. Nature of the assay: Decrease in iNOS protein expression in LPS-activated mouse BV2 cells at 20 uM. Format: functional, cell-based.

With `CC(C)(S)[C@@H](N)C(=O)O`, in assay [1], the SC50 was 5.13 µM.
As for `CNC(=N)NCCC[C@H](N)C(=O)O` [TILARGININE], in the assay with BV-2 [2], the IC50 amounted to 13.2 µM. This lies in the double-digit micromolar range.
Turning to `O=c1c(O)c(-c2ccc(O)c(O)c2)oc2cc(O)cc(O)c12` [QUERCETIN], half-maximal inhibition with BV-2 [2] (IC50) required 29.6 µM.
For `COc1c(-c2ccc(O)c(O)c2)oc2cc(O)cc(O)c2c1=O` [3-O-METHYLQUERCETIN], the SC50 in assay [1] came to 0.77 µM. For the same molecule, the outcome in the assay on BV-2 [3] was Active. In the assay with BV-2 [2], this molecule came in with a half-maximal inhibitory concentration (IC50) of 3.8 µM.
